Results from paper PMC9927415, “Tyrosine Kinase Inhibitors Display Potent Activity against Cryptosporidium parvum” (Microbiology Spectrum, 2022).

Assays:
Experiment in all cases: KINOMEscan competitive binding, whole panel
panel of 203 kinases [1] = target: T1, panel of 203 kinases (Homo sapiens, UniProt P04626); settings: 10 µM, n=1; kinase ERBB2; read-out: Percent inhibition ERBB2
T1 construct: purchased DiscoverX (KINOMEscan)
Excerpt: (§1) The kinases were expressed as fusions to T7 bacteriophage. This is a sensitive, competitive binding assay where test compounds were used to displace immobilized ATP-site binding probe ligands from kinases of interest. The amount of kinase that remained bound to the immobilized probe ligands on the solid support was quantified. Percentage inhibition data were was plotted on kinome trees using the web-based tool KinMap (http://www.kinhub.org/kinmap) ([60]).

panel of 203 kinases [2] = target: T2, panel of 203 kinases (Homo sapiens, UniProt P06213); settings: 10 µM, n=1; kinase INSR; read-out: Percent inhibition INSR
T2 construct: purchased DiscoverX (KINOMEscan)
T2 sequence (P06213 28-1382): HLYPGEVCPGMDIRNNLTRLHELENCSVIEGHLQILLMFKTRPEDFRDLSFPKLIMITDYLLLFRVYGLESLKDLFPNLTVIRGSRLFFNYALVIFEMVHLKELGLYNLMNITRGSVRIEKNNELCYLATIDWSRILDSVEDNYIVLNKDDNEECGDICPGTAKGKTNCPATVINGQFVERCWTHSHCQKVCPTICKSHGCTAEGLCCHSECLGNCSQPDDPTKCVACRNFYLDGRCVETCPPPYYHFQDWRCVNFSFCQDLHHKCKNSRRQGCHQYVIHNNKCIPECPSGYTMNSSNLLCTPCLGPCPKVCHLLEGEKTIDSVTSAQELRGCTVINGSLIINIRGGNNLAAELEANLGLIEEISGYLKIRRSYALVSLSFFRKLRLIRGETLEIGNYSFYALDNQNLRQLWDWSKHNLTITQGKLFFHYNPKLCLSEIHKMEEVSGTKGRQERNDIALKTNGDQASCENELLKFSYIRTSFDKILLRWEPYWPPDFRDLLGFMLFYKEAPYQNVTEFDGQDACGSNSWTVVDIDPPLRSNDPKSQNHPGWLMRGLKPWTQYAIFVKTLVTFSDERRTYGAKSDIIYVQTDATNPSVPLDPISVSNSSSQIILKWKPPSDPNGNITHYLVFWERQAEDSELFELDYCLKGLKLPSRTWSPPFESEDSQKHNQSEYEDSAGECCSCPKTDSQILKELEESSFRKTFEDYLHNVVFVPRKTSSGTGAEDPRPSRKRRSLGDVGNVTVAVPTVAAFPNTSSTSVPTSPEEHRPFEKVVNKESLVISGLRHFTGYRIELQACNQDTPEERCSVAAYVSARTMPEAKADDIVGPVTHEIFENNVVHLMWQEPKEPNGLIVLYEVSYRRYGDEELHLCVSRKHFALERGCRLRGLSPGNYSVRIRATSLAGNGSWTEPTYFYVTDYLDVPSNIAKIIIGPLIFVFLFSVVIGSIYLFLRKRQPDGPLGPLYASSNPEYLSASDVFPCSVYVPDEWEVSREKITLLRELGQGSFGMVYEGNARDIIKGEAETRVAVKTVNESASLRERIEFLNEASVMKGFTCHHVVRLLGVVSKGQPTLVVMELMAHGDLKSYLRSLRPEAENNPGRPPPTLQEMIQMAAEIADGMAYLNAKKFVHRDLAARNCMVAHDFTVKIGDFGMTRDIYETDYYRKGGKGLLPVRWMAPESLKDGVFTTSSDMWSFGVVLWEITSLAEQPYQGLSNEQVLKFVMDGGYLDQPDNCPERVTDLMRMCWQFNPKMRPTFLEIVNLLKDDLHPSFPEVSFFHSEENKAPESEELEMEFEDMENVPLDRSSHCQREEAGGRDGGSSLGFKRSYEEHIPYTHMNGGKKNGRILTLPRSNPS
Excerpt: as §1

panel of 203 kinases [3] = target: T3, panel of 203 kinases (Homo sapiens, UniProt Q9Y2H1); settings: 10 µM, n=1; kinase NDR2; read-out: Percent inhibition NDR2
T3 construct: purchased DiscoverX (KINOMEscan)
T3 sequence (Q9Y2H1 whole entry): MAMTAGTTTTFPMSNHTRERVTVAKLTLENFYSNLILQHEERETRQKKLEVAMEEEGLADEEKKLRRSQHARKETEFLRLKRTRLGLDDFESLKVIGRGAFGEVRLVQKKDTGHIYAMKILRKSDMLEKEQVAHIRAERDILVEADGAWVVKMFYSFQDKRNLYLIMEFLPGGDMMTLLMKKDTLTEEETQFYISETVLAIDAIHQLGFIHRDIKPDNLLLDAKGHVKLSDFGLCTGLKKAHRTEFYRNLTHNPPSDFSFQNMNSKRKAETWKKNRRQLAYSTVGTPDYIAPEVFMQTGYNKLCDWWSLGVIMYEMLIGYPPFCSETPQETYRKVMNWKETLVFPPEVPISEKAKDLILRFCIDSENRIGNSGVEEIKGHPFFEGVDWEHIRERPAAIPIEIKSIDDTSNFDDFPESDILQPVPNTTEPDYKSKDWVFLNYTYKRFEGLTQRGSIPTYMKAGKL
Excerpt: as §1

panel of 203 kinases [4] = target: T4, panel of 203 kinases (Homo sapiens, UniProt Q96D53); settings: 10 µM, n=1; kinase ADCK4; read-out: Percent inhibition ADCK4
T4 construct: purchased DiscoverX (KINOMEscan)
T4 sequence (Q96D53 1-544): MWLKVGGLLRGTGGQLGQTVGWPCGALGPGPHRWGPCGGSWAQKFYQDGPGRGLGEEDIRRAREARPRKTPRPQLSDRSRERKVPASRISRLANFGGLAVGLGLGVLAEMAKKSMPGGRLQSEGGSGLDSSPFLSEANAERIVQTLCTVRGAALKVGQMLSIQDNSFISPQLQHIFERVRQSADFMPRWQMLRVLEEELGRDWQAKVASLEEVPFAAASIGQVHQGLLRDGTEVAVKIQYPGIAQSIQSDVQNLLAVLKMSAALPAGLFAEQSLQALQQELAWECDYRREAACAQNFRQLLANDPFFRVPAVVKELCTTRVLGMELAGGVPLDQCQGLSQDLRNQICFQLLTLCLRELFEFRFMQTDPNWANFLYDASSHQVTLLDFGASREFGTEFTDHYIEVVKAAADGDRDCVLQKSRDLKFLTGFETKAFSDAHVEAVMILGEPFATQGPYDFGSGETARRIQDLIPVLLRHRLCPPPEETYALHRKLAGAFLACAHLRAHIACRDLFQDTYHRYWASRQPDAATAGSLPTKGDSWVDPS
Excerpt: as §1

panel of 203 kinases [5] = target: T5, panel of 203 kinases (Homo sapiens, UniProt Q04771); settings: 10 µM, n=1; kinase ACVR1; read-out: Percent inhibition ACVR1
T5 construct: purchased DiscoverX (KINOMEscan)
T5 sequence (Q04771 21-509): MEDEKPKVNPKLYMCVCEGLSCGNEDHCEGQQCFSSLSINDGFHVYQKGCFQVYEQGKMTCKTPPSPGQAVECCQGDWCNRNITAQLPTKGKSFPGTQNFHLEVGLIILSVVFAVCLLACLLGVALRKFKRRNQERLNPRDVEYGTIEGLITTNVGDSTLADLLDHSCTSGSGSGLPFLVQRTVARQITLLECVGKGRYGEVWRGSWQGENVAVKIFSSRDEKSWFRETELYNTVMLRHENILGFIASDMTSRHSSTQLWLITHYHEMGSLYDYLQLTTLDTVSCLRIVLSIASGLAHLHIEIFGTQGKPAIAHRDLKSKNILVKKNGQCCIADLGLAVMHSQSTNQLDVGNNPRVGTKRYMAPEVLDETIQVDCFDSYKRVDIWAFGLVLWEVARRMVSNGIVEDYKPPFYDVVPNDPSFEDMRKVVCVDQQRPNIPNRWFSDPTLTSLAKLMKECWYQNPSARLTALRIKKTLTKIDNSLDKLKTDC
Excerpt: as §1

panel of 203 kinases [6] = target: T6, panel of 203 kinases (Homo sapiens, UniProt P11362); settings: 10 µM, n=1; kinase FGFR1; read-out: Percent inhibition FGFR1
T6 construct: purchased DiscoverX (KINOMEscan)
T6 sequence (P11362 22-822): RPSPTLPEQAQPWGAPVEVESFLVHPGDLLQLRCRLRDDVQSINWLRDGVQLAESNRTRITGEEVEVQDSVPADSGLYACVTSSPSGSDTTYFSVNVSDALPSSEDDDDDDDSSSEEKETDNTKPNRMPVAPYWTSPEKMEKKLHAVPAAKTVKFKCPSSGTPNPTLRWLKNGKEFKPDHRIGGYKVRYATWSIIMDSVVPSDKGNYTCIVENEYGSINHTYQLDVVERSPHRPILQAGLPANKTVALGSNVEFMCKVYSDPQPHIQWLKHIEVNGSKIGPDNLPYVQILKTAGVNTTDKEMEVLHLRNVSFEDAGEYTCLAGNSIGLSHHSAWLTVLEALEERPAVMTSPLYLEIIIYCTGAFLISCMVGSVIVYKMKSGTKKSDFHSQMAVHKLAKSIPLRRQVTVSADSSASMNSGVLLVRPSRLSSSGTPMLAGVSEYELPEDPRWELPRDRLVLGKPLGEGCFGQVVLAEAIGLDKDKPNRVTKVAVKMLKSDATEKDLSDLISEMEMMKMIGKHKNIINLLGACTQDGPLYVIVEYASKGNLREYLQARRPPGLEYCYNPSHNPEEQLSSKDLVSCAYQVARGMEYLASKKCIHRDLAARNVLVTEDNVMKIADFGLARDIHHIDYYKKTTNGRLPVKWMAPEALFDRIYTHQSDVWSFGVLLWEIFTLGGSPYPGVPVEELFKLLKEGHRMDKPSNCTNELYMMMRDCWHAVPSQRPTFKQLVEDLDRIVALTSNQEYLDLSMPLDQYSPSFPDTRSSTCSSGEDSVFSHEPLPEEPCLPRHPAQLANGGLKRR
Excerpt: as §1

panel of 203 kinases [7] = target: T7, panel of 203 kinases (Homo sapiens, UniProt Q99683); settings: 10 µM, n=1; kinase MAP3K5; read-out: Percent inhibition MAP3K5
T7 construct: purchased DiscoverX (KINOMEscan)
T7 sequence (Q99683 1-1374): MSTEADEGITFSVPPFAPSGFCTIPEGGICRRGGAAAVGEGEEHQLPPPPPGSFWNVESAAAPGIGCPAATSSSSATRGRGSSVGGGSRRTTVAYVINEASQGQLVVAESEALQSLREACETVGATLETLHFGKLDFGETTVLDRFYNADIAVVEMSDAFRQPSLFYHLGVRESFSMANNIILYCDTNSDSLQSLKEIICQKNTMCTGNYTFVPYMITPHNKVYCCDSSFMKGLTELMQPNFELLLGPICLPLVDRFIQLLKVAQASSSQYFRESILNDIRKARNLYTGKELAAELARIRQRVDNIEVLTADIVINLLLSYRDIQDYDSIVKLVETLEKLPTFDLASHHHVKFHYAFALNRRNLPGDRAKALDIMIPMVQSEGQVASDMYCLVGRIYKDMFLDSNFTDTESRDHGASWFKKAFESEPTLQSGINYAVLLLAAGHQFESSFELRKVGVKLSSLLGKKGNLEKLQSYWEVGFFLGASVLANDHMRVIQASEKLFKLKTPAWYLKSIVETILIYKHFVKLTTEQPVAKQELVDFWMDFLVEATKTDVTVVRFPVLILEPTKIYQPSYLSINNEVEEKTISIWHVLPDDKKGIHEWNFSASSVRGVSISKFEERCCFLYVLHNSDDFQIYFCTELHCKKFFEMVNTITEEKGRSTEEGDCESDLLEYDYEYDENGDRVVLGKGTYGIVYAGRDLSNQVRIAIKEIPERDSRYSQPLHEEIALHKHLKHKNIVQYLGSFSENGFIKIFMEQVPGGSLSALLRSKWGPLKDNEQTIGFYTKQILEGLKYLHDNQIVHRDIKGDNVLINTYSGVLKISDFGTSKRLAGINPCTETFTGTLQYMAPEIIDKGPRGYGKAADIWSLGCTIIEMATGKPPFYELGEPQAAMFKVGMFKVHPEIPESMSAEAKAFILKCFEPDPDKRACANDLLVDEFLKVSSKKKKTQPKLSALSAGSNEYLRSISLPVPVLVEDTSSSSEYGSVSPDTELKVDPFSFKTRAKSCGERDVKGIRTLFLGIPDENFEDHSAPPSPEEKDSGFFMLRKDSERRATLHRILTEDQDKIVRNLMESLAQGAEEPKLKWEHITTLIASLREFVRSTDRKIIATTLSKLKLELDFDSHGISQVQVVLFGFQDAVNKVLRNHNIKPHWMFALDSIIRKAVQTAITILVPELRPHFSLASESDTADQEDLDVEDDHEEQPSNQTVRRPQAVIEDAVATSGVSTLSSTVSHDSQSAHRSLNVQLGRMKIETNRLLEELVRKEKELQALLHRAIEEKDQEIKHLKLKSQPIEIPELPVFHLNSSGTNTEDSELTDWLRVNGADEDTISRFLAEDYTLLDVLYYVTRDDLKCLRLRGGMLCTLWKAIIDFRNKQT
Excerpt: as §1

T1 sequence (P04626 23-1255): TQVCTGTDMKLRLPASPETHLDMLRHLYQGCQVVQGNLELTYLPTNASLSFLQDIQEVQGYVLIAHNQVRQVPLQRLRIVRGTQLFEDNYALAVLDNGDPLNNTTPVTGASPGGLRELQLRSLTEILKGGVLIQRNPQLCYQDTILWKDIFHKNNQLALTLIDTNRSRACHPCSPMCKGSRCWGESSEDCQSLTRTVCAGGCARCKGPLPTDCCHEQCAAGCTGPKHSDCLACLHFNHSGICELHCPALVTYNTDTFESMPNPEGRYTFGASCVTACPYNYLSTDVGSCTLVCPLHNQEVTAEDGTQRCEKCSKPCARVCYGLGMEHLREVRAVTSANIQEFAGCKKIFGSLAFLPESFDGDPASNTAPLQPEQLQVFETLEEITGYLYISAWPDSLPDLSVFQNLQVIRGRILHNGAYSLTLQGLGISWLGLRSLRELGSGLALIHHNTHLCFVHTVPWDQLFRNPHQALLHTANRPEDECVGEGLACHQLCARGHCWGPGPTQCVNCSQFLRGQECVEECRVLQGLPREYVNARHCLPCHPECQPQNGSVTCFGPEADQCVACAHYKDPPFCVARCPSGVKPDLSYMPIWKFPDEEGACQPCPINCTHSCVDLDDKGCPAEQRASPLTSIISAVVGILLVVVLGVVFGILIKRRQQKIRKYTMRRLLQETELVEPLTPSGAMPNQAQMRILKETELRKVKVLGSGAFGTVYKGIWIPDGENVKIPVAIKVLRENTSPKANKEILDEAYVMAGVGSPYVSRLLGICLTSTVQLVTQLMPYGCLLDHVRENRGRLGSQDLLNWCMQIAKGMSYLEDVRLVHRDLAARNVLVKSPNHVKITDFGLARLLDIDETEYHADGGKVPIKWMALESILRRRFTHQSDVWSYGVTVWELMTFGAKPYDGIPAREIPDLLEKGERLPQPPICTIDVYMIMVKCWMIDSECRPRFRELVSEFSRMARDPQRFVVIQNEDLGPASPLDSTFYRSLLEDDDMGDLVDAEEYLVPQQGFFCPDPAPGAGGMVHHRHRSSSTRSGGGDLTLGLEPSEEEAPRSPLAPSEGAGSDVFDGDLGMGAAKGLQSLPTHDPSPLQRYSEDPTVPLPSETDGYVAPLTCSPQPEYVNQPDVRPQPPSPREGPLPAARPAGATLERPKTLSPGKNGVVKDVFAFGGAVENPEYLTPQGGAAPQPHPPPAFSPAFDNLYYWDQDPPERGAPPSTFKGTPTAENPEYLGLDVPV

Structure (SMILES)	inhibition at 10 µM (panel of 203 kinases [1]) [%]	inhibition at 10 µM (panel of 203 kinases [2]) [%]	inhibition at 10 µM (panel of 203 kinases [3]) [%]	inhibition at 10 µM (panel of 203 kinases [4]) [%]	inhibition at 10 µM (panel of 203 kinases [5]) [%]	inhibition at 10 µM (panel of 203 kinases [6]) [%]	inhibition at 10 µM (panel of 203 kinases [7]) [%]
Cc1ccc(O)cc1Nc1ccnc(Nc2cccc(C(N)=O)c2)n1 [Compound 3]	0	0	0	100	99.7	0	0
Cc1ccc(O)cc1N(C)c1ccnc(Nc2cccc(S(N)(=O)=O)c2)n1 [Compound 4]	0	0	69.4	100	99.9	0	0
CN1CCN(c2ccc(Nc3nccc(-c4cnn5ncccc45)n3)cc2C#N)CC1 [Compound 1]	0	94.3	0	98.6	98.8	74.1	0
Clc1ccc(Nc2ncc(-c3ccccc3)s2)cc1 [Compound 10]	0	0	0	0	0	0	0
Nc1ncc2c(-c3ccncc3)c[nH]c2n1 [Compound 11]	0	0	0	0	66.2	0	0
Fc1cccc(COc2ccc(Nc3ncnc4c3CN(CCN3CCOCC3)CC4)cc2Cl)c1 [Compound 6]	86.5	0	0	0	0	0	0
COc1ccc(Nc2nccc(-c3cnn4ncccc34)n2)cc1 [Compound 2]	0	76.9	91.7	94.5	92.1	0	0
C[C@@H](Oc1cc(-c2cnc3ccccn23)sc1C(N)=O)c1ccccc1Cl [Compound 8]	0	0	0	0	0	0	0
COc1cc(Nc2nccc(-c3sc(N)nc3-c3cccc(NC(=O)c4c(F)cccc4F)c3)n2)cc(OC)c1OC [Compound 7]	100	97.3	100	100	0	99.7	0
c1ccc(COc2cccc(-c3ccnc4[nH]ccc34)c2)cc1 [Compound 9]	0	0	0	0	0	0	0
